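Compound exposure: 48 hours, 5 concentrations, 96-well plates. GI50 is the concentration that inhibits growth by half.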 The source made the active and inactive calls. Rule as the data show it: active = GI50 up to about 1.1 µM and inactive = higher.
Experiments:
Test in all cases: NCI tumour cell line growth inhibition, 48 h
A549 = test system: A549
KM-20L2 = test system: KM-20L2
SN12C = test system: SN12C
EKVX = test system: EKVX
SNB-78 = test system: SNB-78
TK-10 = test system: TK-10
SF-295 = test system: SF-295
M19-MEL = test system: M19-MEL
SF-539 = test system: SF-539
HT-29 = test system: HT-29
MOLT-4 = test system: MOLT-4
HOP-18 = test system: HOP-18
SK-MEL-28 = test system: SK-MEL-28
786-0 = test system: 786-0
OVCAR-4 = test system: OVCAR-4
Malme-3M = test system: Malme-3M
DMS-114 = test system: DMS-114
COLO 205 = test system: COLO 205
SK-MEL-2 = test system: SK-MEL-2
OVCAR-5 = test system: OVCAR-5
DLD-1 = test system: DLD-1
KM12 = test system: KM12
OVCAR-8 = test system: OVCAR-8
DMS-273 = test system: DMS-273
M14 = test system: M14
HL-60 = test system: HL-60
SK-OV-3 = test system: SK-OV-3
LXFL 529 = test system: LXFL 529
NCI-H226 = test system: NCI-H226
RXF 393 = test system: RXF 393
HOP-92 = test system: HOP-92
ACHN = test system: ACHN
NCI-H23 = test system: NCI-H23
SW-620 = test system: SW-620
HCT-116 = test system: HCT-116
HCT-15 = test system: HCT-15
UO-31 = test system: UO-31
HOP-62 = test system: HOP-62
UACC-62 = test system: UACC-62
OVCAR-3 = test system: OVCAR-3
CAKI-1 = test system: CAKI-1
IGROV-1 = test system: IGROV-1
HCC 2998 = test system: HCC 2998
SK-MEL-5 = test system: SK-MEL-5
LOX IMVI = test system: LOX IMVI
U-251 = test system: U-251
NCI-H522 = test system: NCI-H522
RXF 631 = test system: RXF 631
NCI-H460 = test system: NCI-H460
SF-268 = test system: SF-268
K562 = test system: K562
SNB-75 = test system: SNB-75
UACC-257 = test system: UACC-257
CCRF-CEM = test system: CCRF-CEM
A498 = test system: A498
RPMI-8226 = test system: RPMI-8226
SNB-19 = test system: SNB-19
SR = test system: SR

Compound: C1=NN(Cc2ccccc2)C(N(Cc2ccccc2)Cc2ccccc2)N1 (stereo not drawn)
- GI50 (A549): 16.3 µM (inactive)
- GI50 (KM-20L2): 14.1 µM (inactive)
- GI50 (SN12C): 17 µM (inactive)
- GI50 (EKVX): 20.3 µM (inactive)
- GI50 (SNB-78): 29.6 µM (inactive)
- GI50 (TK-10): 29.3 µM (inactive)
- GI50 (SF-295): 14.5 µM (inactive)
- GI50 (M19-MEL): 17.5 µM (inactive)
- GI50 (SF-539): 15.4 µM (inactive)
- GI50 (HT-29): 15.2 µM (inactive)
- GI50 (MOLT-4): 15.2 µM (inactive)
- GI50 (HOP-18): 23.3 µM (inactive)
- GI50 (SK-MEL-28): 19 µM (inactive)
- GI50 (786-0): 17.8 µM (inactive)
- GI50 (OVCAR-4): 15.8 µM (inactive)
- GI50 (Malme-3M): 12.2 µM (inactive)
- GI50 (DMS-114): 12.7 µM (inactive)
- GI50 (COLO 205): 16.9 µM (inactive)
- GI50 (SK-MEL-2): 16.4 µM (inactive)
- GI50 (OVCAR-5): 13 µM (inactive)
- GI50 (DLD-1): 21.1 µM (inactive)
- GI50 (KM12): 16.3 µM (inactive)
- GI50 (OVCAR-8): 23.9 µM (inactive)
- GI50 (DMS-273): 15.1 µM (inactive)
- GI50 (M14): 11 µM (inactive)
- GI50 (HL-60): 4.91 µM (inactive)
- GI50 (SK-OV-3): 15.4 µM (inactive)
- GI50 (LXFL 529): 12.1 µM (inactive)
- GI50 (NCI-H226): 18.5 µM (inactive)
- GI50 (RXF 393): 16.2 µM (inactive)
- GI50 (HOP-92): 12.8 µM (inactive)
- GI50 (ACHN): 19.7 µM (inactive)
- GI50 (NCI-H23): 16.9 µM (inactive)
- GI50 (SW-620): 20.6 µM (inactive)
- GI50 (HCT-116): 9.31 µM (inactive)
- GI50 (HCT-15): 16.1 µM
- GI50 (UO-31): 14.2 µM (inactive)
- GI50 (HOP-62): 18.2 µM (inactive)
- GI50 (UACC-62): 14 µM (inactive)
- GI50 (OVCAR-3): 14 µM (inactive)
- GI50 (CAKI-1): 14.4 µM (inactive)
- GI50 (IGROV-1): 14.5 µM (inactive)
- GI50 (HCC 2998): 17.5 µM (inactive)
- GI50 (SK-MEL-5): 14.2 µM (inactive)
- GI50 (LOX IMVI): 15.3 µM (inactive)
- GI50 (U-251): 16.7 µM (inactive)
- GI50 (NCI-H522): 15.7 µM (inactive)
- GI50 (RXF 631): 16.1 µM (inactive)
- GI50 (NCI-H460): 18.1 µM (inactive)
- GI50 (SF-268): 21.3 µM (inactive)
- GI50 (K562): 8.91 µM (inactive)
- GI50 (SNB-75): 23.1 µM (inactive)
- GI50 (UACC-257): 16.7 µM (inactive)
- GI50 (CCRF-CEM): 12.2 µM (inactive)
- GI50 (A498): 17.7 µM (inactive)
- GI50 (RPMI-8226): 3.9 µM (inactive)
- GI50 (SNB-19): 20.9 µM (inactive)

Compound: O=C1C(Br)=CC2(C=C1Br)CCNC1=C2C(=O)c2ccccc2C1=O
- GI50 (A549): 22.8 µM (inactive)
- GI50 (KM-20L2): 7.41 µM (inactive)
- GI50 (SN12C): 6.68 µM (inactive)
- GI50 (EKVX): 38.5 µM (inactive)
- GI50 (SNB-78): 11.2 µM (inactive)
- GI50 (TK-10): 33.3 µM (inactive)
- GI50 (SF-295): 16.8 µM (inactive)
- GI50 (M19-MEL): 4.66 µM (inactive)
- GI50 (HT-29): 18.7 µM (inactive)
- GI50 (SR): 2.95 µM (inactive)
- GI50 (MOLT-4): 3.75 µM (inactive)
- GI50 (HOP-18): 32.2 µM (inactive)
- GI50 (SK-MEL-28): > 10 µM (inactive)
- GI50 (786-0): 11.9 µM (inactive)
- GI50 (Malme-3M): 18.1 µM (inactive)
- GI50 (DMS-114): 5.7 µM (inactive)
- GI50 (COLO 205): 4.61 µM (inactive)
- GI50 (SK-MEL-2): 14.9 µM (inactive)
- GI50 (DLD-1): 9.25 µM (inactive)
- GI50 (KM12): 8.22 µM (inactive)
- GI50 (OVCAR-8): 4.21 µM (inactive)
- GI50 (M14): 18.4 µM (inactive)
- GI50 (HL-60): 3.34 µM (inactive)
- GI50 (SK-OV-3): 30.4 µM (inactive)
- GI50 (LXFL 529): 5.37 µM (inactive)
- GI50 (RXF 393): 3.84 µM (inactive)
- GI50 (ACHN): 14.1 µM (inactive)
- GI50 (NCI-H23): 7.6 µM (inactive)
- GI50 (SW-620): 9.98 µM (inactive)
- GI50 (HCT-116): 4.13 µM (inactive)
- GI50 (HCT-15): 7.76 µM
- GI50 (HOP-62): 16 µM (inactive)
- GI50 (UACC-62): 8.59 µM (inactive)
- GI50 (OVCAR-3): 29.6 µM (inactive)
- GI50 (CAKI-1): 21.6 µM (inactive)
- GI50 (IGROV-1): 18.5 µM (inactive)
- GI50 (SK-MEL-5): 11.6 µM (inactive)
- GI50 (LOX IMVI): 4.24 µM (inactive)
- GI50 (NCI-H522): 3.58 µM (inactive)
- GI50 (RXF 631): 5.69 µM (inactive)
- GI50 (SF-268): 11.2 µM (inactive)
- GI50 (K562): 7.89 µM (inactive)
- GI50 (SNB-75): > 100 µM (inactive)
- GI50 (UACC-257): 14.1 µM (inactive)
- GI50 (CCRF-CEM): 3.57 µM (inactive)
- GI50 (RPMI-8226): 4.75 µM (inactive)
